In one assay the target is T1, STK3 (MST2) (Homo sapiens, UniProt Q13188).
T1 construct: purchased Life Technologies PV 4805
T1 sequence (Q13188 1-491): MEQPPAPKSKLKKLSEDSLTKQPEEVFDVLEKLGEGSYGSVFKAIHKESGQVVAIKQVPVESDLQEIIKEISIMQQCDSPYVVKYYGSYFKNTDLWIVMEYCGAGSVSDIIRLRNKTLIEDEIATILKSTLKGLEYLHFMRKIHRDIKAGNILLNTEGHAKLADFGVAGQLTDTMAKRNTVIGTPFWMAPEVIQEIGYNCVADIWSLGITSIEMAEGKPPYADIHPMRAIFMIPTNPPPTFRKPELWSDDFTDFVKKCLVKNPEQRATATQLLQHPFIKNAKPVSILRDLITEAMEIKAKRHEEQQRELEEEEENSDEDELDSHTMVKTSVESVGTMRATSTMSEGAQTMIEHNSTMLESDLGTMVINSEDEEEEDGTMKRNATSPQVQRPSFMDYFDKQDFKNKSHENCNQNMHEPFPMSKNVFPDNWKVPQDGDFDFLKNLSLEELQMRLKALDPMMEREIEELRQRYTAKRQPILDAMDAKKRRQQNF
The assay is described as follows: Z'-LYTE kinase selectivity assay STK3. Format: biochemical. An excerpt:
(§1) In order to compare the kinase selectivity of compounds (I) according to the invention with known prior art compounds the commercially provided SelectScreen® Kinase Profiling Service (Z′-LYTE®) was used (Life Technologies GmbH, Darmstadt, Germany) to investigate the ability of the compounds to inhibit a number of different, representatively selected human kinases. Further details regarding this service are available on the Life Technologies website at
(§2) The Z′-LYTE® biochemical assay employs a fluorescence-based, coupled-enzyme format and is based on the differential sensitivity of phosphorylated and non-phosphorylated peptides to proteolytic cleavage. The peptide substrate is labeled with two fluorophores—one at each end—that make up a FRET pair.
(§3) In the primary reaction, the kinase transfers the gamma-phosphate of ATP to a single tyrosine, serine or threonine residue in a synthetic FRET-peptide. In the secondary reaction, a site-specific protease recognizes and cleaves non-phosphorylated FRET-peptides. Phosphorylation of FRET-peptides suppresses cleavage by the Development Reagent. Cleavage disrupts FRET between the donor (i.e., coumarin) and acceptor (i.e., fluorescein) fluorophores on the FRET-peptide, whereas uncleaved, phosphorylated FRET-peptides maintain FRET. A ratiometric method, which calculates the ratio (the Emission Ratio) of donor emission to acceptor emission after excitation of the donor fluorophore at 400 nm, is used to quantitate reaction progress, as shown in the equation below.
(§4) The Test Compounds are screened at 1 μM.
The 2×STK3 (MST2) (# PV 4805)/Ser/Thr 07 (Z′-LYTE® Kinase Assay Kit—Ser/Thr 7 Peptide, # PV 3180) mixture is prepared in 50 mM HEPES pH 6.5, 0.01% BRIJ-35, 10 mM MgCl2, 1 mM EGTA, 0.02% NaN3. The final 10 μL Kinase Reaction consists of 6.25-38.7 ng STK3 (MST2) and 2 μM Ser/Thr 07 in 50 mM HEPES pH 7.0, 0.01% BRIJ-35, 10 mM MgCl2, 1 mM EGTA, 0.01% NaN3. After the 1 hour Kinase Reaction incubation, 5 μL of a 1:65000 dilution of Development Reagent A is added.

The target in the next assay is T2, FRAP1 (mTOR) (Homo sapiens, UniProt P42345).
T2 construct: purchased Life Technologies PR8683B
The assay is described as follows: Z'-LYTE kinase selectivity assay FRAP1 (mTOR). Type of assay: biochemical.
From the text: as §1, §2, §3, §4
The 2×FRAP1 (mTOR) (# PR8683B)/Ser/Thr 11 (Z′-LYTE® Kinase Assay Kit—Ser/Thr 11 Peptide, # PV 3670) mixture is prepared in 50 mM HEPES pH 7.5, 0.01% BRIJ-35, 10 mM MnCl2, 1 mM EGTA, 2 mM DTT, 0.02% NaN3. The final 10 μL Kinase Reaction consists of 11.1-56 ng FRAP1 (mTOR) and 2 μM Ser/Thr 11 in 50 mM HEPES pH 7.5, 0.01% BRIJ-35, 5 mM MgCl2, 5 mM MnCl2, 1 mM EGTA, 1 mM DTT, 0.01% NaN3. After the 1 hour Kinase Reaction incubation, 5 μL of a 1:16 dilution of Development Reagent B is added.

The record followed here is patent US10414769B2, “5,8-dimethyl-9-phenyl-5,8-dihydro-6H-pyrazolo[3,4-h]quinazolin-2-yl)-(1H-pyrazol-3-yl)-amines as IGF-1R/IR inhibitors” (Boehringer Ingelheim International GmbH, priority 2015, dated 2019).

On to `C[C@@H]1Cc2nn(C)c(-c3ccccc3)c2-c2nc(Nc3ccn(CCN4CCN(C)CC4)n3)ncc21` [Compound I-1], for which the results for the inhibition at 1 µM against STK3 (MST2) and on FRAP1 (mTOR) were 1% and -6%, respectively.

Take `COCCN1CCN(CCn2ccc(Nc3ncc4c(n3)-c3c(nn(C)c3-c3ccccc3)C[C@H]4C)n2)CC1` [Compound I-11]: the inhibition at 1 µM against STK3 (MST2) is -2%; against FRAP1 (mTOR), -11%.

Take `C[C@@H]1Cc2nn(C)c(-c3ccccc3)c2-c2nc(Nc3ccn(CCN4CCOCC4)n3)ncc21` [Compound I-2]: the inhibition at 1 µM on STK3 (MST2) was determined as 5%; on FRAP1 (mTOR), 1%.

As to `C[C@@H]1Cc2nn(C)c(-c3ccccc3)c2-c2nc(Nc3ccn(CCN4CCN(CC(C)(C)O)CC4)n3)ncc21` [Compound I-3], the inhibition at 1 µM against STK3 (MST2) is -1%; against FRAP1 (mTOR), -10%.

On to `C[C@@H]1Cc2nn(C)c(-c3ccccc3)c2-c2nc(Nc3ccn(CCN4CCN(CC5CCCO5)CC4)n3)ncc21` (some centres unmarked) [Compound I-9], for which the inhibition at 1 µM against STK3 (MST2) was -15%; at FRAP1 (mTOR), -12%.

Regarding `CC(O)CN1CCN(CCn2ccc(Nc3ncc4c(n3)-c3c(nn(C)c3-c3ccccc3)C[C@H]4C)n2)CC1` (some centres unmarked) [Compound I-7], the figures for the inhibition at 1 µM at STK3 (MST2) and at FRAP1 (mTOR) were 15% and 3%, respectively.

As for `C[C@@H]1Cc2nn(C)c(-c3ccccc3)c2-c2nc(Nc3ccn(CCN4CCN(CC(=O)OC5CCOCC5)CC4)n3)ncc21` [Compound I-8], the inhibition at 1 µM on STK3 (MST2) is -1%; against FRAP1 (mTOR) it was -8%.
